These results are taken from patent publication US8637679B2, “Process for the isolation of organic compounds useful for the treatment of cancer” (Council of Scientific and Industrial Research, priority 2011, dated 2014).

The structures appear in SMILES notation.

In one series the test system is LN229. In words: MTT cell viability assay, LN229. The settings on record: Homo sapiens, LN-229; LN229, 48 hrs. The series is classed as cell-based, human. On the procedure: Human cervical cancer cell lines (HeLa, ME-180 and SiHa), brain tumor cell lines (U87MG, U373MG, U87MG EGFRvIII, T98G, A172 and LN229), lymphoid leukemia (MOLT-3, MOLT-4, REH and CEMC-7), myloid leukemia (K562), pancreatic cancer (MIAPaCa-2, AsPC-1, Panc-1 and Panc 10.05), lung cancer (A549) and colon cancer (HCT116 and SW480) cell lines from American Type Culture Collection, Manassas, Va., USA were grown in IMDM or RPMI (cell specific) Medium supplemented with 10% fetal bovine serum and 1% antibiotic-antimycotic. Cells were cultured in 37° C. in an atmosphere of 5% CO2.
Viability of cancer cell lines after treatment as at the indicated times was determined by MTT assay. Briefly, 10,000 cells were plated in triplicate in 96 well plates and incubated for 24 and 48 hours in complete media in presence of varying dose of mahanine (0-50 μM). 100 ug MTT was added in each well. Incubate the plate for 1-4 hours at 37° C. and humidified 5% CO2 atmosphere. Absorbance was recorded at 550 nm with 96 well plate readers.
A general note: Tetrazolium assays rely on reduction of a dye to a coloured formazan, in cell work by metabolically active cells.

In a further series the test system is Vero. As to the kind of experiment: MTT cell viability assay, Vero normal cells. Format: cell-based, African monkey.
Series [1] has as its system Hsp90 client proteins (Akt). In words: Western blot of Hsp90 client proteins. Format: cell-based, human. The note with it: cervical and pancreatic cancer cell lines, 24 hrs. On the procedure: Different human cancer cells (1×10^6 cells) were incubated with complete medium alone or with different dose of Mahanine (10-20 μM) as indicated. Cells were detached using trypsin-EDTA solution. They were collected by centrifugation at 1500 g for 10 mins and lysed by sonication. Aliquots containing 60 μg total cellular protein were separated by 10% SDS-PAGE and transferred to nitrocellulose membrane (MILIPORE, Bedford, Mass., USA). Membrane was blocked with blocking buffer for 1 hour at room temperature and probed with desired primary antibody Hsp90, Hsp70, Hsp40, p23, HOP, Cdc37, B-Raf, Stat-3, Bcl-xl, Akt, PARP, β-actin (Cell signaling technology, USA) and caspase-3 (Santa Cruz, USA), caspase9, cytochrome c (cell signaling technology, USA) for overnight at 4° C. followed by HRP conjugated secondary antibody and detected by ECL. For the detection of association of the Hsp90-Cdc37, Hsp90-p23 and Hsp90-HOP, total cell lysate (400 μg) was treated with anti-Hsp-90 antibody (1:100 dilutions) and incubated overnight at 4° C. The chaperonic complex was resolved by SDS-PAGE (10%), transferred and probed separately with anti-Cdc37, anti-HOP, anti-p23 and anti-Hsp-90 antibodies. In the few immunoprecipitation experiments anti-Cdc37 used as precipitating antibody and Hsp90 was used as detection antibody. […]
(In general: Immunoblotting shows a protein as a band on a membrane.)

The next series concerns the target Hsp90β (Homo sapiens, UniProt P08238). As to the kind of experiment: γ-ATP sepharose binding assay, Hsp90β. The note with it: mahanine at 50 and 100 μM. As to the method: 5 μg of purified Hsp90α and Hsp90β were pre-incubated separately on ice with 200 μL incubation buffer (10 mM Tris-Hcl, 50 mM KCl, 5 mM MgCl2, 2 mM DTT, 20 mM Na2MoO4, 0.01% NP40, pH 7.5) containing mahanine or 17-AAG and incubated for 30 mins on ice. After the incubation, 25 μL pre-equilibrated γ-phosphate ATP sepharose added and again incubated at 37° C. with frequent agitation.
Sepharose subsequently washed and analyzed by SDS-PAGE. Then the blot was probed with anti Hsp90 antibody and developed by ECL.

In the next series the target is human Hsp90. In words: Surface plasmon resonance binding to immobilized Hsp90. The note with it: SPR, Hsp90-mahanine complex. As to the method:
The portion of the sensorgram which corresponds to the dissociation of mahanine from Hsp90 was analyzed by the BIA evaluation program 2.1 to obtain the dissociation rate (kd) (FIG. 22). The experimental data fits well with the single exponential kinetic model used. Some experiments were repeated at a flow rate of 5 μl/min to check the effect of possible rebinding. Rebinding and mass transfer limitation was also checked by the repetition of the experiments at lower levels of immobilized Hsp90. […] Using the corresponding kd values nonlinear curve fitting of the association phase of the corresponding sensorgram was carried out with the BIA evaluation program 2.1 to obtain association rate (ka).
All the solutions were passed through a 0.22 micron Millipore filter and de-gassed in vacuum for 6-7 minutes at room temperature. For coupling Hsp90 to the SPR sensor chips, 400 μl (50 μg/ml) human Hsp90 was dialysed over night at 4° C. against coupling buffer containing 5 mM Na2HPO4, pH 7.4 and 150 mM NaCl to remove Tris, which interferes with the coupling. Before coupling, carboxymethyl-dextran sensor chips (CM5, Lot 1170768, Biacore, Upsala Sweden) were incubated with running buffer containing 10 mM HEPES, pH 7.4, 0.15 M KCl and 0.001% Tween-20 to prevent the unspecific binding of proteins to the capillaries in a BIAcore apparatus for 10 minutes at 25° C. at a flow rate of 5 μl/min. […]
For orientation: In SPR one partner is held on a chip, and binding of the other changes the refractive index at the surface.

Series [2] in a line: In vivo bioavailability after oral feeding. The settings on record: after oral administration. The arrangement: species or system Balb/c mice. On the procedure:
EtOAc extract of Murraya koenigii was orally feeded to normal healthy Balb/c (100 mg/kg body weight) and blood was collected from retro orbital plexus after 30 min interval by glass capillary. Control blood was collected from the mice before the […] of extract. The Institutional Animal Ethical Committee had approved the study. Blood serum was isolated and the serum protein was separated by centrifugation in ice-cold acetone. Supernatant was evaporated to dryness and residual part was dissolved in minimum volume of MeOH and injected into the HPLC column.

The nature of series [3]: Tissue toxicity in K562 xenograft bearing nude mice. The series is classed as in vivo.

Hsp90β, sequence (P08238 whole entry): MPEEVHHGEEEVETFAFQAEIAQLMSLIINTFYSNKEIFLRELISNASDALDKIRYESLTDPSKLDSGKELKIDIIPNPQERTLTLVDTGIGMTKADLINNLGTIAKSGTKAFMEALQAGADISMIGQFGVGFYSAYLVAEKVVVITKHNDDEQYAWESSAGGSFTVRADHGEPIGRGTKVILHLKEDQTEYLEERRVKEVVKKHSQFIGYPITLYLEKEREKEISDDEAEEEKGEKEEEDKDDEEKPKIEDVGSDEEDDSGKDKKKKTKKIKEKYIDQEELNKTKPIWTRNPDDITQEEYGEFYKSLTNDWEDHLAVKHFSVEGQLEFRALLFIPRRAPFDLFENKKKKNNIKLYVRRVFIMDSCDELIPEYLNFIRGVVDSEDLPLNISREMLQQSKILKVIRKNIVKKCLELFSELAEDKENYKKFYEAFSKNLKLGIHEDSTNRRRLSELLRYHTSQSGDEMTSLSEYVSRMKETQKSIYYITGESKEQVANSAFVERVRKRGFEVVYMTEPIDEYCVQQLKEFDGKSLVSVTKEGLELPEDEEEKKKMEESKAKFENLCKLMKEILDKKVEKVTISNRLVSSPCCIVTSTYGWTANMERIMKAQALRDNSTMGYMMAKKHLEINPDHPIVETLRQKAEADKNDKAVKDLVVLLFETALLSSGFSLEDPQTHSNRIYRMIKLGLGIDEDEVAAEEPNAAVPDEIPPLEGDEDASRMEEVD

Consider `CC(C)=CCCC1(C)C=Cc2c(c(C)cc3c2[nH]c2cc(O)ccc23)O1` (centres unmarked) [Mahanine, mahanine], for which the IC50 in the series on LN229 was 13.7 ± 0.3 µM; in the series with Vero (Primates, Vero normal cell line, 48 hrs), above 100 µM. Besides, the “sensitivity of Vero cells” value with Vero (proliferating normal cells, in vitro) was “less sensitive”. Also, the “dose enough to start significant downregulation of Akt level” value in series [1] stood at 15 µM. On Hsp90β, the “effect on ATP binding to purified Hsp90” value is “could not reduce”. For the same molecule, the “Dissociation constant (KD) (kd/ka)” value at human Hsp90 came out at 4.99 µM. For the same molecule, the “secondary metabolites in blood (mass spectroscopy)” value in series [2] is “no production of secondary metabolites”. Also, the “toxicity towards nonspecific tissues (lung, liver, spleen)” value in series [3] is “no toxic effect”.

A word on the IC50: it is the concentration that inhibits the measured activity by half. Read a high IC50 as lower potency.
